Experimental data reported in doi:10.1101/2021.04.08.439011v1 (biorxiv, 2021).

What was measured:
SLK = SLK (Homo sapiens, UniProt Q9H2G2); conditions: 1 µM; binder
ULK2 = ULK2 (Homo sapiens, UniProt Q8IYT8); conditions: 1 µM; binder
CDK3 = CDK3 (Homo sapiens, UniProt Q00526); conditions: 1 µM; binder
CSNK1A1 = CSNK1A1 (Homo sapiens, UniProt P48729); conditions: 1 µM; binder
MYLK2 = MYLK2 (Homo sapiens, UniProt Q9H1R3); conditions: 1 µM; binder
NDR1 = NDR1 (Homo sapiens, UniProt Q15208); conditions: 1 µM; binder
IKK-epsilon = IKK-epsilon (Homo sapiens, UniProt Q14164); conditions: 1 µM; binder
ABL1(E255K) = ABL1(E255K) (Homo sapiens, UniProt P00519, E255K); conditions: phosphorylated; 1 µM; binder
LTK = LTK (Homo sapiens, UniProt P29376); experiment: biochemical; conditions: read-out: Percent Control
STK33 = STK33 (Homo sapiens, UniProt Q9BYT3); experiment: biochemical; conditions: read-out: Percent Control
DYRK1B = DYRK1B (Homo sapiens, UniProt Q9Y463); experiment: biochemical; conditions: read-out: Percent Control
ERBB2 = ERBB2 (Homo sapiens, UniProt P04626); conditions: 0.1 µM; binder
NEK9 = NEK9 (Homo sapiens, UniProt Q8TD19); conditions: 0.1 µM; binder
ERK5 = ERK5 (Homo sapiens, UniProt Q13164); conditions: 0.1 µM; binder
CSNK1E = CSNK1E (Homo sapiens, UniProt P49674); conditions: 0.1 µM; binder
SGK3 = SGK3 (Homo sapiens, UniProt Q96BR1); conditions: 0.1 µM; binder
FRK = FRK (Homo sapiens, UniProt P42685); conditions: 0.1 µM; binder
ANKK1 = ANKK1 (Homo sapiens, UniProt Q8NFD2); conditions: 0.1 µM; binder
NIM1 = NIM1 (Homo sapiens, UniProt Q8IY84); conditions: 0.1 µM; binder
IRAK3 = IRAK3 (Homo sapiens, UniProt Q9Y616); conditions: 0.1 µM; binder
CHEK1 = CHEK1 (Homo sapiens, UniProt O14757); conditions: 0.1 µM; binder
BMPR1A = BMPR1A (Homo sapiens, UniProt P36894); conditions: 0.1 µM; binder
ABL1(Y253F) = ABL1(Y253F) (Homo sapiens, UniProt P00519, Y253F); conditions: phosphorylated; 0.1 µM; binder
DDR1 = DDR1 (Homo sapiens, UniProt Q08345); conditions: 0.1 µM; binder
LATS2 = LATS2 (Homo sapiens, UniProt Q9NRM7); conditions: 0.1 µM; binder
MST3 = MST3 (Homo sapiens, UniProt Q9Y6E0); conditions: 0.1 µM; binder
TNNI3K = TNNI3K (Homo sapiens, UniProt Q59H18); conditions: 0.1 µM; binder
TRKC = TRKC (Homo sapiens, UniProt Q16288); conditions: 0.1 µM; binder
PCTK1 = PCTK1 (Homo sapiens, UniProt Q00536); conditions: 0.1 µM; binder
OSR1 = OSR1 (Homo sapiens, UniProt O95747); conditions: 0.1 µM; binder
MYO3B = MYO3B (Homo sapiens, UniProt Q8WXR4); conditions: 0.1 µM; binder

Chain of PCTK1 (Q00536 whole entry): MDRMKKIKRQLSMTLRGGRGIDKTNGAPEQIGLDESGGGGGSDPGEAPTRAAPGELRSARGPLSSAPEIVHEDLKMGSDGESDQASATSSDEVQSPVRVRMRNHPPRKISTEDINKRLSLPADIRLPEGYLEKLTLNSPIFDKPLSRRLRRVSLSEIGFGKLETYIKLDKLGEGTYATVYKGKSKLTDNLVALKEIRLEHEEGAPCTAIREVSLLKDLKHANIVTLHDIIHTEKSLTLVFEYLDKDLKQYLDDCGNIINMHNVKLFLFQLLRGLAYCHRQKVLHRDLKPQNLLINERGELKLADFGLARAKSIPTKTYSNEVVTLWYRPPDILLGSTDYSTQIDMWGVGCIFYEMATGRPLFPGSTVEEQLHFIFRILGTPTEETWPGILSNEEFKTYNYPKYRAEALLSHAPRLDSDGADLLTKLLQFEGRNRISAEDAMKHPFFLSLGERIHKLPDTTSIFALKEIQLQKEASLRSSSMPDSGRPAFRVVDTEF
Chain of NIM1 (Q8IY84 whole entry): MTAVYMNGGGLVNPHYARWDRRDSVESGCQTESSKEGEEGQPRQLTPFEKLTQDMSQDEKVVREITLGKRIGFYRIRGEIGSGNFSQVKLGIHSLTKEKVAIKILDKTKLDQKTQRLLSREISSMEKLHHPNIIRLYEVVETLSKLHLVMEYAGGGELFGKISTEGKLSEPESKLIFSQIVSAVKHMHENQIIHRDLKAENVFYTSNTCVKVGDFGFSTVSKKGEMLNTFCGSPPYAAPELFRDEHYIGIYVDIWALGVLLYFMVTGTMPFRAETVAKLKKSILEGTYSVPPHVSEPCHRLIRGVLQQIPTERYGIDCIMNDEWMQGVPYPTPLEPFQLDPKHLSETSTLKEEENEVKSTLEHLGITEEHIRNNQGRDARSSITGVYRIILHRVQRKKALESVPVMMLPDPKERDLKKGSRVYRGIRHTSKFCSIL
Chain of CHEK1 (O14757 whole entry): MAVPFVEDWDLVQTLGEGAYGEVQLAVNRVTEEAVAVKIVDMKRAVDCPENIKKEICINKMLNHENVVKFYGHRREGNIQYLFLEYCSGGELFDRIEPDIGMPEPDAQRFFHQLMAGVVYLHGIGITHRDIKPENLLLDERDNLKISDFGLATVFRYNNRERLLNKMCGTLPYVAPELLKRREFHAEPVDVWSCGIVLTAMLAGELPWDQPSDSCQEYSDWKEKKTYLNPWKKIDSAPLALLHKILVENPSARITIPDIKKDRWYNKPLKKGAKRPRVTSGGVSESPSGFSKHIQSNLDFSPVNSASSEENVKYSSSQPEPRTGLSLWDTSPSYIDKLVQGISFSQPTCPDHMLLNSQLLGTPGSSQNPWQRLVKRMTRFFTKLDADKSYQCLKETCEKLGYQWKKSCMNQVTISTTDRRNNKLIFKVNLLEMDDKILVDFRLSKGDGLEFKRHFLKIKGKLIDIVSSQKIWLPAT
Chain of CSNK1E (P49674 whole entry): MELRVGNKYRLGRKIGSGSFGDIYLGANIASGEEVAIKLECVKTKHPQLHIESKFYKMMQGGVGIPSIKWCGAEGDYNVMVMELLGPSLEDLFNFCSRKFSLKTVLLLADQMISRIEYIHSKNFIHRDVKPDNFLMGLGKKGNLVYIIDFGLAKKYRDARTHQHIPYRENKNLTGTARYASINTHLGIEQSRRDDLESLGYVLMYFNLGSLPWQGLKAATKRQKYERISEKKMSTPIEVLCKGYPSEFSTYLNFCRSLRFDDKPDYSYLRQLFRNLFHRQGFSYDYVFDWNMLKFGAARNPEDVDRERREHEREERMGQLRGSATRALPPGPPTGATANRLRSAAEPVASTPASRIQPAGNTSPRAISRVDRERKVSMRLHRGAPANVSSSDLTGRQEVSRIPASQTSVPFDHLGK
Chain of LATS2 (Q9NRM7 whole entry): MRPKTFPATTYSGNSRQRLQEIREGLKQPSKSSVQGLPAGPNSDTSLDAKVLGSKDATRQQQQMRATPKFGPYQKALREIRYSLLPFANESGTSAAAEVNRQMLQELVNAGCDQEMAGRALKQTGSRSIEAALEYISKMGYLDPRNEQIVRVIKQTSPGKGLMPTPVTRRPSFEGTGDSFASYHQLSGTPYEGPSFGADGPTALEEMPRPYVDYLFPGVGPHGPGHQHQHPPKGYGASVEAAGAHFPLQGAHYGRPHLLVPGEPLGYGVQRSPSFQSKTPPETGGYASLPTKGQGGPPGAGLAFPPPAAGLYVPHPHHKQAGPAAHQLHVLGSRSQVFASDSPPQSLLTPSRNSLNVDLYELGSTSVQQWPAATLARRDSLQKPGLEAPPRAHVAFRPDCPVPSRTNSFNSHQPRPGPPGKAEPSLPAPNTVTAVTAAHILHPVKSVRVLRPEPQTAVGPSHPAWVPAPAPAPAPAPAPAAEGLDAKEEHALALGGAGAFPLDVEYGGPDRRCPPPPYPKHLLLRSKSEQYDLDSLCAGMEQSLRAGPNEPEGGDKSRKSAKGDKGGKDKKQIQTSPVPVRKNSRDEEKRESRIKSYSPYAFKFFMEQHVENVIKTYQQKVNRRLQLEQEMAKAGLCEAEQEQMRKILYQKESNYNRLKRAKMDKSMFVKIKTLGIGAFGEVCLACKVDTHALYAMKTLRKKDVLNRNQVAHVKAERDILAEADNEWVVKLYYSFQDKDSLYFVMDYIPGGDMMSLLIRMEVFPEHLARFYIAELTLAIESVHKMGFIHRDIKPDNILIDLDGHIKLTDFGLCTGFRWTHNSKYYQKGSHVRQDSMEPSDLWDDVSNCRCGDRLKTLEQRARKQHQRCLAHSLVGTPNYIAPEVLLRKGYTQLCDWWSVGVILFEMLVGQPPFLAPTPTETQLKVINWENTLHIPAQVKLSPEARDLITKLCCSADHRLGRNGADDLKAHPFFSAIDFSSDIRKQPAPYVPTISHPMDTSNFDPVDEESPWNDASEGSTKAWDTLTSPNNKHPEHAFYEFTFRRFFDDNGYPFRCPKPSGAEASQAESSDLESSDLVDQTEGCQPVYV
Chain of IRAK3 (Q9Y616 whole entry): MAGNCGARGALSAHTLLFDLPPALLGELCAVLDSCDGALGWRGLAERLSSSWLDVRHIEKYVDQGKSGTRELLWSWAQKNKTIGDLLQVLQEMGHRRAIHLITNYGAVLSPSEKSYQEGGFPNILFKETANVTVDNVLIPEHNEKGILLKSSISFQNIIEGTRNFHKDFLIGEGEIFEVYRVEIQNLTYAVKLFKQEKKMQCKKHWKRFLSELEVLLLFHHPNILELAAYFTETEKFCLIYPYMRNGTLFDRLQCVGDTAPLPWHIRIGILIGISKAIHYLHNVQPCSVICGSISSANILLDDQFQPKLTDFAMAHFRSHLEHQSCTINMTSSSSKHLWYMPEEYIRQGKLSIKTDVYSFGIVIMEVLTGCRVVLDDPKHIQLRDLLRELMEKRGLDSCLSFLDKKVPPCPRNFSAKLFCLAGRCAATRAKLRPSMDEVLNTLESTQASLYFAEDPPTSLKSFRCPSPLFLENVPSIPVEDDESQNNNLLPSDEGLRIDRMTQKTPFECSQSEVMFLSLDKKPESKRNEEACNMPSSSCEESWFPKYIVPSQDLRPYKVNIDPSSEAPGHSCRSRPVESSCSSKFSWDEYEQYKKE
Chain of STK33 (Q9BYT3 whole entry): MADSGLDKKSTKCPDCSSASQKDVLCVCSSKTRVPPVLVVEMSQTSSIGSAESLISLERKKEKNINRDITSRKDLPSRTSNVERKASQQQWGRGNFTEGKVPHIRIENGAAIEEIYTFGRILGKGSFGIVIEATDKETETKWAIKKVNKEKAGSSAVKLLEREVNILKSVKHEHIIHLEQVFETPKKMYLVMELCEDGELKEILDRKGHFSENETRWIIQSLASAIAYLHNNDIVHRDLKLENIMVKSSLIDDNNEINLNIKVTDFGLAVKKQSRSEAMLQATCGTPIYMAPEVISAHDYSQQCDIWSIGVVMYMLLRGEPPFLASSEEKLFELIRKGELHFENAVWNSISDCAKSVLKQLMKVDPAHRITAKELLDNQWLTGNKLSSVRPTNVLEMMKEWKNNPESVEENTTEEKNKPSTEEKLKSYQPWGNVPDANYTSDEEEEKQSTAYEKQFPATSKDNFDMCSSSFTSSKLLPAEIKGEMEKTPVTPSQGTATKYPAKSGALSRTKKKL
Chain of CSNK1A1 (P48729 whole entry): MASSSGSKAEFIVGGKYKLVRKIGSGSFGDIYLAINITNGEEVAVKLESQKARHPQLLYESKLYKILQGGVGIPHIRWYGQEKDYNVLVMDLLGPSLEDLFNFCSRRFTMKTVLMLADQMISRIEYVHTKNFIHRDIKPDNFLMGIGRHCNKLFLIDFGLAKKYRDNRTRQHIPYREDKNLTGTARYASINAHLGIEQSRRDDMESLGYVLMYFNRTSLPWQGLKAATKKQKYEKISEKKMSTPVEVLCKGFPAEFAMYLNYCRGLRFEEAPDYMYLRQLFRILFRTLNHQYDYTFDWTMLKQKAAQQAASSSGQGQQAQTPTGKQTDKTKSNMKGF
Chain of CDK3 (Q00526 whole entry): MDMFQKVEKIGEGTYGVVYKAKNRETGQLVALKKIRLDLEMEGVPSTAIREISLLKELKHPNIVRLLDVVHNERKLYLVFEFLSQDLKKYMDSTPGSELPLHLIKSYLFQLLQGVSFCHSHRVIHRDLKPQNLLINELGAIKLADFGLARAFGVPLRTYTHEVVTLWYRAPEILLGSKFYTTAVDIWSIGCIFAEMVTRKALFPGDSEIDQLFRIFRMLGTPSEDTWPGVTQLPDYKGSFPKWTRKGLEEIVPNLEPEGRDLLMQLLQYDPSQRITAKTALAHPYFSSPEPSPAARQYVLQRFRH

With `CNc1ncc2cc(-c3ccc(-c4cccc(C)n4)cc3Cl)c(=O)n(C[C@H]3OC[C@H](N)CO3)c2n1` [compound 6, G-5555] the “Percent Control” value (SLK) was 33%, the “Percent Control” value (ULK2) was 100% and the “Percent Control” value (CDK3) was 100%. The “Percent Control” value (CSNK1A1) was 89%, the “Percent Control” value (MYLK2) was 81% and the “Percent Control” value (NDR1) was 70%. For the same molecule, the “Percent Control” value (IKK-epsilon) was 78%, the “Percent Control” value (ABL1(E255K)) was 100% and the remaining activity at 0.1 µM (LTK) was 28%. For the same molecule, the remaining activity at 0.1 µM (STK33) was 100%, the remaining activity at 0.1 µM (DYRK1B) was 61% and the “Percent Control” value (ERBB2) was 100%. The “Percent Control” value (NEK9) was 100%, the “Percent Control” value (ERK5) was 98% and the “Percent Control” value (CSNK1E) was 100%. The “Percent Control” value (SGK3) was 93%, the “Percent Control” value (FRK) was 100% and the “Percent Control” value (ANKK1) was 91%. For the same molecule, the “Percent Control” value (NIM1) was 89%, the “Percent Control” value (IRAK3) was 95% and the “Percent Control” value (CHEK1) was 100%. The “Percent Control” value (BMPR1A) was 90%, the “Percent Control” value (ABL1(Y253F)) was 97% and the “Percent Control” value (DDR1) was 100%. For the same molecule, the “Percent Control” value (LATS2) was 58%, the “Percent Control” value (MST3) was 15% and the “Percent Control” value (TNNI3K) was 100%. For the same molecule, the “Percent Control” value (TRKC) was 84%, the “Percent Control” value (PCTK1) was 100% and the “Percent Control” value (OSR1) was 99%. For the same molecule, the “Percent Control” value (MYO3B) was 48%.
